The structures appear in SMILES notation. pIC50: −log10 of the molar value. Converted amounts (≈) assume the structure as drawn. The source made the active and inactive calls. No cut-off for these calls is given here.

T1 sequence (P05106 27-788 limits assumed): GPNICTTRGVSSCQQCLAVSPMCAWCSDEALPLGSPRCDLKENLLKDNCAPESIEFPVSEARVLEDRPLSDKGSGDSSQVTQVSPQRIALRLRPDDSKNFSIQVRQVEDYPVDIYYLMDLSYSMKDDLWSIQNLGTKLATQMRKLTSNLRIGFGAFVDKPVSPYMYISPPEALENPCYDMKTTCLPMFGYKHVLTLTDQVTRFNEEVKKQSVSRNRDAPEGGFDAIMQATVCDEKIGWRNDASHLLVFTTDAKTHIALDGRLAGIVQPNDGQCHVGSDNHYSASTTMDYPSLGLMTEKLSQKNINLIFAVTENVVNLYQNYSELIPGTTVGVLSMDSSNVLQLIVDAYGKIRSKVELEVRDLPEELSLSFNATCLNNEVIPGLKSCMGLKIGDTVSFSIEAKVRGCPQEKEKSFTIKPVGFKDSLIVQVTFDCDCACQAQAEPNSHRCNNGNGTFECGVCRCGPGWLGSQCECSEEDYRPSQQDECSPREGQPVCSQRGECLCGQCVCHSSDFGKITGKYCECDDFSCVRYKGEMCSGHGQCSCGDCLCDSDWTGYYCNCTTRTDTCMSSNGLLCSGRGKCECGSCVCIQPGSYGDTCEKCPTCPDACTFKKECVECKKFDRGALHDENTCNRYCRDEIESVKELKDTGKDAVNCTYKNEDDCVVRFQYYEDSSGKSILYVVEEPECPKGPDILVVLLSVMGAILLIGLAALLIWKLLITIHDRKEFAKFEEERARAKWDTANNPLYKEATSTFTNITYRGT
T1 sequence (P06756 31-889 limits assumed): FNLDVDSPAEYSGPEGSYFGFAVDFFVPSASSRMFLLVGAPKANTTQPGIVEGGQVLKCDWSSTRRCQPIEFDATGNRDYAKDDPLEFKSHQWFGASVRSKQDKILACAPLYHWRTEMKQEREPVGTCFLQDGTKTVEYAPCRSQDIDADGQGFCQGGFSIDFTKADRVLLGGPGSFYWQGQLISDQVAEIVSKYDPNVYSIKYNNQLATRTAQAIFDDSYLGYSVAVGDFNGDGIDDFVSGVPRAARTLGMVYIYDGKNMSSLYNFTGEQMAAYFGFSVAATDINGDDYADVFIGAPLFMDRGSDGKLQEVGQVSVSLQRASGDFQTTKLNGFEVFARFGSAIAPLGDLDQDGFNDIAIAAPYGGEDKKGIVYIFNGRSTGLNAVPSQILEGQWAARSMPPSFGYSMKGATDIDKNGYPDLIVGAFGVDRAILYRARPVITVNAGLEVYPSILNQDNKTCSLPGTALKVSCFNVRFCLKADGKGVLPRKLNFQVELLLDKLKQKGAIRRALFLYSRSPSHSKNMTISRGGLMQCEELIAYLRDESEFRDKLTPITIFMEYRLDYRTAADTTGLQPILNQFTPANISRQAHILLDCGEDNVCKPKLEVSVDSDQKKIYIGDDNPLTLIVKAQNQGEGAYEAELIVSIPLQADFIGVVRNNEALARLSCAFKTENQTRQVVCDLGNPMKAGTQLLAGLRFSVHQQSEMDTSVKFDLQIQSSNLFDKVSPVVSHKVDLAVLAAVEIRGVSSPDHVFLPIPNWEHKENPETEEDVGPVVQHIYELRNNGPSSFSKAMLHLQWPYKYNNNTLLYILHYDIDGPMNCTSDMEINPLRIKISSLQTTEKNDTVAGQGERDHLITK
T1 sequence (P06756 891-1048 limits assumed): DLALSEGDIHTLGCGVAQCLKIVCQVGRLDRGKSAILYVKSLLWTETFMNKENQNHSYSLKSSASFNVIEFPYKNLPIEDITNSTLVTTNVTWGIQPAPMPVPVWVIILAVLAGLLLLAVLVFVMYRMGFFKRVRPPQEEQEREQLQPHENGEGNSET
Integrin alpha-IIb/beta-3, sequence (P05106 27-788 limits assumed): as the sequence (P05106 27-788 limits assumed) above
Integrin alpha-IIb/beta-3, sequence (P08514 32-887 limits assumed): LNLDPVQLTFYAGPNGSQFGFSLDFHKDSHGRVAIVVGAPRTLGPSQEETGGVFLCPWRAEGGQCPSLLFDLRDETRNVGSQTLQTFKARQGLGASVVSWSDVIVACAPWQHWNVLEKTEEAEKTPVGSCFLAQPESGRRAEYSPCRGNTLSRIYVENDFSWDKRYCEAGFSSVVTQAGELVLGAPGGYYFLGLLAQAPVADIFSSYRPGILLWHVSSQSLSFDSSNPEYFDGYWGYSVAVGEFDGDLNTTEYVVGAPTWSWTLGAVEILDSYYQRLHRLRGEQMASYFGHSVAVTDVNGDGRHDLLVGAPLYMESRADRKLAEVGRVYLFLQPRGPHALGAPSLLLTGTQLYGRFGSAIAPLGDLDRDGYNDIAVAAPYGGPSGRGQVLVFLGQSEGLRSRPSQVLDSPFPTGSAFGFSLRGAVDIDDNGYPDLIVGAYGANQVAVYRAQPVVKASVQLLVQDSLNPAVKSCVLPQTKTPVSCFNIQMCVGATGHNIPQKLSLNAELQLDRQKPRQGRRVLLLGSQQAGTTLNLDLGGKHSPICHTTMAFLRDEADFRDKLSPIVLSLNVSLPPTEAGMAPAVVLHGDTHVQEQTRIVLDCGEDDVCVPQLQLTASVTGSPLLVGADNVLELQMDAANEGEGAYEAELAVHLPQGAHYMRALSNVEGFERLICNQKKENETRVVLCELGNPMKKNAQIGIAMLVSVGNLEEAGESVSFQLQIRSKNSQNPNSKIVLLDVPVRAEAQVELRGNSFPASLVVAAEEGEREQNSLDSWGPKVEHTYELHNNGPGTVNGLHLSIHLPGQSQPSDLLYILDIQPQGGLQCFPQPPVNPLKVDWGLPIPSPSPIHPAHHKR
Integrin alpha-IIb/beta-3, sequence (P08514 891-1039 limits assumed): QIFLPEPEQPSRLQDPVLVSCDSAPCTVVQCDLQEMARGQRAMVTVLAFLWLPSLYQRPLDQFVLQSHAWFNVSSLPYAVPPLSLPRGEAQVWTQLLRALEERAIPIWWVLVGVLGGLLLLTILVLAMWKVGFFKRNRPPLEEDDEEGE
Macrophage metalloelastase, sequence (P39900 whole entry): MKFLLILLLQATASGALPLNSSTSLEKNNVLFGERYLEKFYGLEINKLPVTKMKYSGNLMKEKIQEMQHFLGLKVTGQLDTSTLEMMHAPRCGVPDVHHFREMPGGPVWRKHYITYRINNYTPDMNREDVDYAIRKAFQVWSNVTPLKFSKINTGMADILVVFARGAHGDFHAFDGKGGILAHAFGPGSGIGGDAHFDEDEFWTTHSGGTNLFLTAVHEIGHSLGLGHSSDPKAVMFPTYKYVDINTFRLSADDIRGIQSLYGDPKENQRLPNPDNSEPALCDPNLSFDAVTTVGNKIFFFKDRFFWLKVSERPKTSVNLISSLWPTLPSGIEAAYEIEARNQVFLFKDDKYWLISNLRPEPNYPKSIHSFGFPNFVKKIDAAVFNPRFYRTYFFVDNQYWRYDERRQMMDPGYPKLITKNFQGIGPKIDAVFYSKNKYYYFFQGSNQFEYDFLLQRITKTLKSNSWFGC

Tested on in the first data set: not listed separately
Put plainly: Antiplatelet activity in human platelet rich plasma assessed as inhibition of platelet aggregation. The data set is classed as functional.
Conditions: not given
In the case of `O=C(NC[C@H](NS(=O)(=O)c1ccccc1)C(=O)O)c1ccc(N2CCC(NC3=NCCCN3)CC2)cc1`, the pIC50 is 6.54.
Same read-out and setting: with `O=C(NC[C@H](NS(=O)(=O)c1ccccc1)C(=O)O)c1ccc(N2CCC(NC3=NCCCN3)CC2)c(O)c1` the figure was 6.77; with `O=C(NC[C@H](NS(=O)(=O)c1ccccc1)C(=O)O)c1ccc(N2CCC(NC3=NCCCN3)CC2)c(Cl)c1`, 7.05.
On the same count and under the same terms, the figure for `O=C(O)c1ccc(S(=O)(=O)N[C@@H](CNC(=O)c2ccc(N3CCC(NC4=NCCCN4)CC3)c(F)c2)C(=O)O)cc1` is 6.03; for `O=C(NC[C@H](NS(=O)(=O)c1ccccc1)C(=O)O)c1ccc(N2CCC[C@H](NC3=NCCCN3)C2)cc1F` it is 6.54.
Still for that read-out and setting: with `COc1cc(C(=O)NC[C@H](NS(=O)(=O)c2ccccc2)C(=O)O)ccc1N1CCC(NC2=NCCCN2)CC1` the figure was 6.89.
Take `O=C(NC[C@H](NS(=O)(=O)c1ccc(O)cc1)C(=O)O)c1ccc(N2CCC(NC3=NCCCN3)CC2)c(F)c1`: the negative-log IC50 (pIC50) was 6.64.
On the same count and under the same terms, with `O=C(NC[C@H](NS(=O)(=O)c1cccs1)C(=O)O)c1ccc(N2CCC[C@H](NC3=NCCCN3)C2)cc1` the figure was 7.00; with `O=C(NC[C@H](NS(=O)(=O)c1ccccc1)C(=O)O)c1ccc(N2CCC(NC3=NCCCN3)CC2)c(F)c1`, 7.43.
Still for that read-out and setting: with `O=C(NC[C@H](NS(=O)(=O)c1ccc(O)cc1)C(=O)O)c1ccc(N2CCC(NC3=NCCCN3)CC2)c(O)c1` the figure was 6.29.
Same read-out and setting: the figure for `O=C(NC[C@H](NS(=O)(=O)c1ccccc1)C(=O)O)c1ccc(N2CCC[C@H](N=C3NCCCN3)C2)cc1` is 7.08.

Another data set has as its target T1, Integrin alpha-V/beta-3 (Homo sapiens, UniProt P05106+P06756). The experiment in a line: Antagonist activity at alphavbeta3 integrin receptor.
Conditions: not given
The data set is classed as functional.
The compound `O=C(NC[C@H](NS(=O)(=O)c1ccccc1)C(=O)O)c1ccc(N2CCC(NC3=NCCCN3)CC2)cc1` showed a pIC50 of 8.89.
Still for that read-out and setting: the figure for `O=C(NC[C@H](NS(=O)(=O)c1ccccc1)C(=O)O)c1ccc(N2CCC(NC3=NCCCN3)CC2)c(O)c1` is 9.36; for `O=C(NC[C@H](NS(=O)(=O)c1ccccc1)C(=O)O)c1ccc(N2CCC(NC3=NCCCN3)CC2)c(Cl)c1` it is 9.77.
The compound `O=C(O)c1ccc(S(=O)(=O)N[C@@H](CNC(=O)c2ccc(N3CCC(NC4=NCCCN4)CC3)c(F)c2)C(=O)O)cc1` showed a pIC50 of 9.11.
On the same count and under the same terms, the figure for `O=C(NC[C@H](NS(=O)(=O)c1ccccc1)C(=O)O)c1ccc(N2CCC[C@H](NC3=NCCCN3)C2)cc1F` is 9.64; for `O=C(NC[C@H](NS(=O)(=O)c1ccc(O)cc1)C(=O)O)c1ccc(N2CCC(NC3=NCCCN3)CC2)c(F)c1` it is 9.85; for `O=C(NC[C@H](NS(=O)(=O)c1cccs1)C(=O)O)c1ccc(N2CCC[C@H](NC3=NCCCN3)C2)cc1` it is 9.60.
The same measure, in the same setting: with `O=C(NC[C@H](NS(=O)(=O)c1ccccc1)C(=O)O)c1ccc(N2CCC(NC3=NCCCN3)CC2)c(F)c1` the figure was 9.44.
`O=C(NC[C@H](NS(=O)(=O)c1ccc(O)cc1)C(=O)O)c1ccc(N2CCC(NC3=NCCCN3)CC2)c(O)c1` had a negative logarithm of the IC50 (pIC50) of 9.52.
Consider `O=C(NC[C@H](NS(=O)(=O)c1ccccc1)C(=O)O)c1ccc(N2CCC[C@H](N=C3NCCCN3)C2)cc1`, for which the pIC50 was 9.32.

Another data set has as its target Integrin alpha-IIb/beta-3 (Homo sapiens, UniProt P05106+P08514). Put plainly: Antagonist activity at alpha2bbeta3 integrin receptor. The data set is classed as functional.
Conditions: not given
Regarding `O=C(NC[C@H](NS(=O)(=O)c1ccccc1)C(=O)O)c1ccc(N2CCC(NC3=NCCCN3)CC2)cc1`, the pIC50 is 8.52.
Same read-out and setting: with `O=C(NC[C@H](NS(=O)(=O)c1ccccc1)C(=O)O)c1ccc(N2CCC(NC3=NCCCN3)CC2)c(O)c1` the figure was 9.01; with `O=C(NC[C@H](NS(=O)(=O)c1ccccc1)C(=O)O)c1ccc(N2CCC(NC3=NCCCN3)CC2)c(Cl)c1`, 10.64; with `O=C(O)c1ccc(S(=O)(=O)N[C@@H](CNC(=O)c2ccc(N3CCC(NC4=NCCCN4)CC3)c(F)c2)C(=O)O)cc1`, 8.92.
For the compound `O=C(NC[C@H](NS(=O)(=O)c1ccccc1)C(=O)O)c1ccc(N2CCC[C@H](NC3=NCCCN3)C2)cc1F`, the pIC50 is 9.11.
Compound `COc1cc(C(=O)NC[C@H](NS(=O)(=O)c2ccccc2)C(=O)O)ccc1N1CCC(NC2=NCCCN2)CC1` had a pIC50 of 9.36.
The same measure, in the same setting: with `O=C(NC[C@H](NS(=O)(=O)c1ccc(O)cc1)C(=O)O)c1ccc(N2CCC(NC3=NCCCN3)CC2)c(F)c1` the figure was 9.74; with `O=C(NC[C@H](NS(=O)(=O)c1cccs1)C(=O)O)c1ccc(N2CCC[C@H](NC3=NCCCN3)C2)cc1`, 9.40; with `O=C(NC[C@H](NS(=O)(=O)c1ccccc1)C(=O)O)c1ccc(N2CCC(NC3=NCCCN3)CC2)c(F)c1`, 9.68.
Same read-out and setting: the figure for `O=C(NC[C@H](NS(=O)(=O)c1ccc(O)cc1)C(=O)O)c1ccc(N2CCC(NC3=NCCCN3)CC2)c(O)c1` is 9.03.
On the same count and under the same terms, the figure for `O=C(NC[C@H](NS(=O)(=O)c1ccccc1)C(=O)O)c1ccc(N2CCC[C@H](N=C3NCCCN3)C2)cc1` is 9.25.

The target in another data set is T1, Integrin alpha-V/beta-3. Put plainly: Antagonist activity at alphavbeta3 integrin receptor human VSMC assessed as inhibition of vitronectin-induced cell adhesion. The data set is classed as functional, cell-based.
Conditions: not given
Take `O=C(NC[C@H](NS(=O)(=O)c1ccccc1)C(=O)O)c1ccc(N2CCC(NC3=NCCCN3)CC2)cc1`: the pIC50 was 6.72.
With `O=C(NC[C@H](NS(=O)(=O)c1ccccc1)C(=O)O)c1ccc(N2CCC(NC3=NCCCN3)CC2)c(O)c1`, the pIC50 is 6.28.
Still for that read-out and setting: with `O=C(NC[C@H](NS(=O)(=O)c1ccccc1)C(=O)O)c1ccc(N2CCC(NC3=NCCCN3)CC2)c(Cl)c1` the figure was 7.14; with `O=C(O)c1ccc(S(=O)(=O)N[C@@H](CNC(=O)c2ccc(N3CCC(NC4=NCCCN4)CC3)c(F)c2)C(=O)O)cc1`, 6.18.
Regarding `O=C(NC[C@H](NS(=O)(=O)c1ccccc1)C(=O)O)c1ccc(N2CCC[C@H](NC3=NCCCN3)C2)cc1F`, the pIC50 is 7.80.
The same measure, in the same setting: with `COc1cc(C(=O)NC[C@H](NS(=O)(=O)c2ccccc2)C(=O)O)ccc1N1CCC(NC2=NCCCN2)CC1` the figure was 6.96; with `O=C(NC[C@H](NS(=O)(=O)c1ccc(O)cc1)C(=O)O)c1ccc(N2CCC(NC3=NCCCN3)CC2)c(F)c1`, 7.28; with `O=C(NC[C@H](NS(=O)(=O)c1cccs1)C(=O)O)c1ccc(N2CCC[C@H](NC3=NCCCN3)C2)cc1`, 7.28.
As to `O=C(NC[C@H](NS(=O)(=O)c1ccccc1)C(=O)O)c1ccc(N2CCC(NC3=NCCCN3)CC2)c(F)c1`, the pIC50 is 7.32.
Still for that read-out and setting: the figure for `O=C(NC[C@H](NS(=O)(=O)c1ccc(O)cc1)C(=O)O)c1ccc(N2CCC(NC3=NCCCN3)CC2)c(O)c1` is 6.41; for `O=C(NC[C@H](NS(=O)(=O)c1ccccc1)C(=O)O)c1ccc(N2CCC[C@H](N=C3NCCCN3)C2)cc1` it is 7.51.

Tested on in a further data set: not listed separately
Put plainly: Aqueous solubility of the compound in water. To be noted: buffer.
With `O=C(NC[C@H](NS(=O)(=O)c1ccccc1)C(=O)O)c1ccc(N2CCC(NC3=NCCCN3)CC2)c(F)c1`, the solubility amounted to 600 µg/mL (≈ 1100 µM).
Still for that read-out and setting: with `O=C(NC[C@H](NS(=O)(=O)c1ccccc1)C(=O)O)c1ccc(N2CCC[C@H](N=C3NCCCN3)C2)cc1` the figure was 3500 µg/mL (≈ 6620 µM).

Staying with this data set, now noted: water.
As for `O=C(NC[C@H](NS(=O)(=O)c1ccccc1)C(=O)O)c1ccc(N2CCC(NC3=NCCCN3)CC2)cc1`, the solubility was under 100 µg/mL.
The same measure, in the same setting: the figure for `O=C(NC[C@H](NS(=O)(=O)c1ccccc1)C(=O)O)c1ccc(N2CCC[C@H](NC3=NCCCN3)C2)cc1F` is 2800 µg/mL (≈ 5120 µM); for `O=C(NC[C@H](NS(=O)(=O)c1ccc(O)cc1)C(=O)O)c1ccc(N2CCC(NC3=NCCCN3)CC2)c(F)c1` it is 100 µg/mL (≈ 178 µM).
Compound `O=C(NC[C@H](NS(=O)(=O)c1cccs1)C(=O)O)c1ccc(N2CCC[C@H](NC3=NCCCN3)C2)cc1` yielded a solubility of 3300 µg/mL (≈ 6170 µM).
Take `Clc1ccc(-c2ccccc2Cl)cc1`: the solubility turned out to be 637 µg/mL (≈ 2860 µM).

Tested on in the next data set: not listed separately
The experiment in a line: Inhibition of Escherichia coli H560 DNA gyrase mediated DNA cleavage.
Conditions: not given
Consider `Cc1c(N2CC[C@H](N)C2)c(F)cn2c(=O)c(C(=O)O)cc(C3CC3)c12` [ABT-719], for which the IC50 turned out to be 0.03 µg/mL (≈ 0.0869 µM).
On the same count and under the same terms, with `O=C(O)c1cc(C2CC2)c2cc(N3CCNCC3)c(F)cn2c1=O` the figure was 0.15 µg/mL (≈ 0.453 µM).

Tested on in another data set: not listed separately
Put plainly: Aqueous solubility of the compound at pH 7.4. The data set is classed as physicochemical. To be noted: buffer.
The compound `CC(c1ccncc1)n1[nH]c(=O)c2[nH]c3cc(Cl)ccc3c(=O)c2c1=O.CS(=O)(=O)O` (stereo not drawn) registered a solubility of over 290 µg/mL.

The next data set addresses Macrophage metalloelastase (Homo sapiens, UniProt P39900). The experiment in a line: Inhibition of MMP12.
Conditions: not given
`O=C(O)Cc1ccc(CNC(=O)c2cc(-c3ccc(-c4ccccc4O)cc3)cs2)cc1` had a pIC50 of 7.05.
Same read-out and setting: with `O=C(O)Cc1ccc(CNC(=O)c2cc(-c3ccc(-c4ccccc4)cc3)cs2)cc1` the figure was 7.15.

Tested on in another data set: not listed separately
Put plainly: Oral bioavailability in rat. The conditions noted are these: in vivo.
`CS(=O)(=O)O.O=c1c2ccc(Cl)cc2[nH]c2c(O)nn(Cc3ccncc3)c(=O)c12` registered a bioavailability of 5%.

Tested on in the next data set: not listed separately
Put plainly: Aqueous solubility of the compound. The data set is classed as physicochemical. The conditions noted are these: buffer.
`O=c1cc(-c2ccccc2)oc2ccc3ccccc3c12` [BETA-NAPHTHOFLAVONE] displayed a solubility of under 0.15 µg/mL.
Compound `O=C(O)Cc1ccc(CNC(=O)c2cc(-c3ccc(-c4ccccc4O)cc3)cs2)cc1` returned a solubility of 134 µg/mL (≈ 302 µM).
In the case of `O=C(O)Cc1ccc(CNC(=O)c2cc(-c3ccc(-c4ccccc4)cc3)cs2)cc1`, the solubility is under 1 µg/mL.

Another data set concerns the target T2, Peroxisome proliferator-activated receptor alpha (Homo sapiens) (UniProt Q07869).
T2 sequence (whole entry): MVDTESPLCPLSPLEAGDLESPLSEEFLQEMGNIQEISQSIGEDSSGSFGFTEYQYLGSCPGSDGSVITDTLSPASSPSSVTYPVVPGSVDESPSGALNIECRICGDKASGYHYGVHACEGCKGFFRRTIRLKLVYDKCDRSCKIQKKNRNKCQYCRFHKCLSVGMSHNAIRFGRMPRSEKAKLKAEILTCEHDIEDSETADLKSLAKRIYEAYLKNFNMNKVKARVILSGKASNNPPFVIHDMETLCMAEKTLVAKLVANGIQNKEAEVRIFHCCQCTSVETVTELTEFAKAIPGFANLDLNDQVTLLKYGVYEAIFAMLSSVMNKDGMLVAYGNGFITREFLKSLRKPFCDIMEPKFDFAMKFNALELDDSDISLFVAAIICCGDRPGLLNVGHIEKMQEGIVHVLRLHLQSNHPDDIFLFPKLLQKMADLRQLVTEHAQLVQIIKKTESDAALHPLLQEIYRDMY
Put plainly: Agonist activity at PPARalpha at 1 uM.
Conditions: not given
The data set is classed as functional.
`CCCCOc1ccc(-c2ccc(C(=O)O)cc2C)cc1CNC(=O)c1ccc(C(F)(F)F)cc1F`: the outcome was inactive.
The same measure, in the same setting: with `CCCCOc1ccc(-c2c(F)ccc(C(=O)O)c2F)cc1CNC(=O)c1ccc(C(F)(F)F)cc1F` the entry was “inactive”; with `CCCCOc1ccc(-c2ccc(C(=O)O)cc2F)cc1CNC(=O)c1ccc(C(F)(F)F)cc1F`, “inactive”.
Same read-out and setting: the entry for `CCCCOc1ccc(-c2ccc(C(=O)O)cc2)cc1CNC(=O)c1ccc(C(F)(F)F)cc1F` is “inactive”.

What is called pIC50 is −log10 of the IC50, conventionally taken in molar units. The solubility is how much of the substance goes into solution per volume. Low readings indicate little dissolved substance, high ones much dissolved substance. Usually IC50 stands for the point on the concentration scale where inhibition reaches its midpoint. Low readings indicate inhibition by little substance, high ones a need for much substance. One may read the bioavailability as dose-corrected exposure relative to a reference, in per cent.
